Consider 2 compounds from patent US20090093521A1, “2, 5-Bis-Diamine [1,4] Benzoquinone-Derivatives” (priority 2005, published 2009).

Test [1] concerns the target AChE (Homo sapiens, UniProt P22303). Format: biochemical. The conditions noted are these: for IC50: Ellman method, saturating substrate (acetylthiocholine), absorbance at 412 nm; for Selectivity IC50 (BuChE)/IC50 (AchE): ratio of IC50 (BuChE) to IC50 (AChE), preference for AChE over BuChE.
Test [2] addresses BuChE (Homo sapiens, UniProt P06276). The test is described as follows: biochemical. The conditions noted are these: Ellman method, saturating substrate, absorbance at 412 nm. It counts as biochemical.

Chain of AChE (P22303 32-614): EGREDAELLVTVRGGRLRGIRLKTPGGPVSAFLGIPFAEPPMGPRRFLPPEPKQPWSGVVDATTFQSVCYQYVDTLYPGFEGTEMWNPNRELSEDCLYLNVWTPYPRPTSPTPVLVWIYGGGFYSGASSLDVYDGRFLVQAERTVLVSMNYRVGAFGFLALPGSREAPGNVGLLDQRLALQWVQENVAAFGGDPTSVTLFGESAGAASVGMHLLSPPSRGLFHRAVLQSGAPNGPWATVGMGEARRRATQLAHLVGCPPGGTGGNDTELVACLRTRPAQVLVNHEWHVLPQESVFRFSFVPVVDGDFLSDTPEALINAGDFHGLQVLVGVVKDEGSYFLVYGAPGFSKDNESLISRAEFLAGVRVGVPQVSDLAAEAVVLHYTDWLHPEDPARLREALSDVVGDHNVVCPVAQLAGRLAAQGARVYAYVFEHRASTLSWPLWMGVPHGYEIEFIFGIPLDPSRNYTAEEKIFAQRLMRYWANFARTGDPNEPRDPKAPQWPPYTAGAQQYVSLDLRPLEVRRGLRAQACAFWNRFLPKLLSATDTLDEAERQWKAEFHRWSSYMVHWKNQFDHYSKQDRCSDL
Chain of BuChE (P06276 29-602): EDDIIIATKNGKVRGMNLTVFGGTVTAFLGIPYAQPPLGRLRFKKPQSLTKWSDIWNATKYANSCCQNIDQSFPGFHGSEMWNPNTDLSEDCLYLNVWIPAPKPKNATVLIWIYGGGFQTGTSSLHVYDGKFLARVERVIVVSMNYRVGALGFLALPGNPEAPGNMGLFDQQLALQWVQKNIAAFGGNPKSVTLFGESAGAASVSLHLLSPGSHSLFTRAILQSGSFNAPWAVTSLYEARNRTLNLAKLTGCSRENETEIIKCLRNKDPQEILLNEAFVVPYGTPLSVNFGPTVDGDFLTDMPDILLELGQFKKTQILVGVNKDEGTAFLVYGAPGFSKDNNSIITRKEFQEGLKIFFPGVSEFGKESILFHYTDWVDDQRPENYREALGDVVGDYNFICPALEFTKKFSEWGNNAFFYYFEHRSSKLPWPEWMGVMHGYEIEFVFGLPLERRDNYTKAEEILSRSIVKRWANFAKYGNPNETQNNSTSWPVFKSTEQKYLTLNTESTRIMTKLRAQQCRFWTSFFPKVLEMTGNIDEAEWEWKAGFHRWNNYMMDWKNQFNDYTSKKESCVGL

For `CCN(CCCCCCNC1=C(Br)C(=O)C(NCCCCCCN(CC)Cc2ccccc2OC)=C(Br)C1=O)Cc1ccccc1OC` [Compound 36, 2,5-bis-{6-[ethyl-(2-methoxy-benzyl)-amine]-hexylamine}-3,6-dibromine-[1,4]benzoquinone], in test [1], the IC50 is 2.66 ± 0.19 nM and the “Selectivity IC50 (BuChE)/IC50 (AchE)” value is given as 300. For the same compound, half-maximal inhibition in test [2] (IC50) was put at 800 ± 62 nM.
`CCN(CCCCCCNC1=C(F)C(=O)C(NCCCCCCN(CC)Cc2ccccc2OC)=C(F)C1=O)Cc1ccccc1OC` [Compound 35, 2,5-bis-{6-[ethyl-(2-methoxy-benzyl)-amine]-hexylamine}-3,6-difluorine-[1,4]benzoquinone]: in test [1], the IC50 was found to be 5.17 ± 0.17 nM and the “Selectivity IC50 (BuChE)/IC50 (AchE)” value was 294. Besides, half-maximal inhibition in test [2] (IC50) was put at 1520 ± 90 nM.
